Format in all cases: cell-based
Experiment [1] deals with Candida albican ATCC MYA-575. Nature of the experiment: In vitro antifungal activity (MIC80), Candida albican ATCC MYA-575. Particulars: Candida; Table 2, MYA 575; read-out: Minimal inhibitory concentration (MIC80). In short, it runs like this: (§1)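 Broth microdilution in RPMI 1640 with 2% (v/v) final DMSO, test solutions 0.25 to 256 […]. Inoculum of 1.0×10^3–5.0×10^3 CFU/ml came from colonies grown 2–3 days at 35 °C, and alamarBlue was added. MIC80 is the lowest concentration reducing growth by 80% versus untreated control.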

Experiment [2] concerns Candida albican ATCC MYA-1003. Nature of the experiment: In vitro antifungal activity (MIC80), Candida albican ATCC MYA-1003. To be noted: Candida; Table 2, MYA 1003; read-out: Minimal inhibitory concentration (MIC80). An outline of the steps: as §1
Experiment [3] deals with Candida albican ATCC 204276. Put plainly: In vitro antifungal activity (MIC80), Candida albican ATCC 204276. To be noted: ATCC204276, Table 2, 204276, read-out: Minimal inhibitory concentration (MIC80). How it is done: (§2) In vitro antifungal activities of the inventive antifungal compounds were evaluated using test strains including Candida albican (ATCC 90873, 204276, 62342, 64124, 64550, 96901, MYA-573, MYA-574, MYA-575, MYA-576, MYA-1003) and Aspergillus fumigatus (ATCC 16424). Test samples and positive control samples were prepared by dissolving the inventive compounds and comparative compounds, i.e., amphotericin B, fluconazole and itraconazole, in DMSO, respectively, and each successively diluted with medium to obtain test and positive control solutions having test compound concentrations of 0.125 μg/ml to a maximum concentration not generating turbidity. Minimal inhibitory concentration (MIC80) of each compound was determined as the lowest concentration of the test compounds required to reduce growth by 80% relative to a control strain not treated.
(§3) 1) Test strain: Candida albican ATCC 90873, 204276, 62342, 64124, 64550, 96901, MYA-573, MYA-574, MYA-575, MYA-576, MYA-1003, and Aspergillus fumigatus ATCC 16424 were commercially obtained from The American Type Culture Collection (ATCC) and subcultured in CHEMON Co. Ltd. (amphotericin B was commercially purchased from Sigma, and fluconazole and itraconazole were prepared according to methods described in British Patent No. 2,099,818; and U.S. Pat. No. 4,267,179, respectively).
(§4) 2) Medium and culture condition: Candida albican was cultured in Sabourad Dextrose Agar, YM Agar or Potato Dextrose Agar according to ATCC information at a temperature of 37° C., 35° C., 30° C. or 25° C. Aspergillus fumigatus was cultured in Malt Extract Agar or Potato Dextrose Agar at a temperature ranging from 24 to 27° C.
(§5) 3) Preparation of test samples: the inventive compounds and comparative compounds were each diluted with DMSO to obtain 1 to 2 ml of a test sample in a concentration of 100-folds of the determining maximum concentration (256 μg/ml).
(§6) The test samples were each successively diluted with RPMI 1640 to obtain test solutions having concentrations of […] in a 12×75 mm sterilized disposable culture tube. The final concentration of DMSO was adjusted to […] (v/v).
(§7) 5) Preparation of strain solution and inoculation
(§8) Candida albican strains were each subcultured in Sabourad Dextrose Agar, YM Agar or Potato Dextrose Agar medium at 35° C. for 2˜3 days. In the case of yeasts, a single colony was taken from prominent colonies and suspended in 0.85% sterile physiological saline solution and the turbidity of the suspension was adjusted to 80˜82% at 530 nm, and then diluted 50-fold with RPMI 1640 medium to 1.0×10^3˜5.0×10^3 CFU/ml. The turbidity of fungi was adjusted to 80˜82% and the suspension was diluted 50-fold to […]. Aspergillus fumigatus strains were subcultured in Malt Extract Agar for 7˜10 days, and a single colony was taken from prominent colonies and suspended in 0.85% sterile physiological saline solution and the suspension was adjusted to 0.108 at 530 nm, and then diluted 1000-fold with RPMI 1640 medium to 0.4×10^2˜5×10^4 CFU/ml. The turbidity of fungi was adjusted to 80˜82% and the suspension was diluted 50-fold to 0.4102˜0.5104 CFU/ml.
(§9) The strain solutions thus obtained were each seeded into a sterilized 96-well microplate, 0.1 ml of each test solution were added thereto, and […] of alamarblue was treated to each well (Biosource, #DAL1100). This procedure was repeated 2 times.
(§10) Minimal inhibitory concentration (MIC80) of each compound was determined as the lowest concentration of the test compounds required to reduce growth by 80% relative to a control strain not treated.

Experiment [4] relates to Candida albican ATCC 90873. Put plainly: In vitro antifungal activity (MIC80), Candida albican ATCC 90873. Particulars: Candida, ATCC90873; Table 2, ATCC 90873; read-out: Minimal inhibitory concentration (MIC80). In short, it runs like this:
as §1

For experiment [5], the system named is Candida albican ATCC MYA-576. Nature of the experiment: In vitro antifungal activity (MIC80), Candida albican ATCC MYA-576. To be noted: Candida; Table 2, MYA 576; read-out: Minimal inhibitory concentration (MIC80). An outline of the steps: as §1
Experiment [6] concerns Candida albican ATCC 64550. Put plainly: In vitro antifungal activity (MIC80), Candida albican ATCC 64550. Particulars: Candida, ATCC64550; Table 2, 64550; read-out: Minimal inhibitory concentration (MIC80). An outline of the steps:
as §1

In experiment [7] the test system is Candida albican ATCC 96901. Nature of the experiment: In vitro antifungal activity (MIC80), Candida albican ATCC 96901. To be noted: Candida, ATCC96901; Table 2, ATCC 96901; read-out: Minimal inhibitory concentration (MIC80). An outline of the steps: as §1
The subject of experiment [8] is Candida albican ATCC MYA-574. Put plainly: In vitro antifungal activity (MIC80), Candida albican ATCC MYA-574. To be noted: Candida; Table 2, MYA 574; read-out: Minimal inhibitory concentration (MIC80). An outline of the steps:
as §1

Experiment [9] has as its system Candida albican ATCC 62342. Nature of the experiment: In vitro antifungal activity (MIC80), Candida albican ATCC 62342. To be noted: Candida, ATCC62342; Table 2, 62342; read-out: Minimal inhibitory concentration (MIC80). In short, it runs like this:
as §1

In experiment [10] the test system is Candida albican ATCC MYA-573. Nature of the experiment: In vitro antifungal activity (MIC80), Candida albican ATCC MYA-573. To be noted: Candida; Table 2, MYA 573; read-out: Minimal inhibitory concentration (MIC80). In short, it runs like this:
as §1

Experiment [11] deals with Aspergillus fumigatus (ATCC 16424). Put plainly: In vitro antifungal activity (MIC80), Aspergillus fumigatus ATCC 16424. Particulars: Aspergillus fumigatus, ATCC16424, Table 2, ATCC 16424; read-out: Minimal inhibitory concentration (MIC80). The method, then:
as §2, §3, §4, §5, §6, §7, §8, §9, §10
MIC80 of each of the compounds of which antifungal activities can be confirmed by Table 2 was determined using other test strains, i.e., Aspergillus fumigatus ATCC 16424 and MYA-1163, Aspergillus terreus ATCC 28301, Aspergillus flavus ATCC MYA-1004, and Aspergillus niger ATCC 9142.

Experiment [12] relates to Candida albican ATCC 64124. Put plainly: In vitro antifungal activity (MIC80), Candida albican ATCC 64124. Particulars: Candida, ATCC64124; Table 2, 64124; read-out: Minimal inhibitory concentration (MIC80). In short, it runs like this: as §1

In patent publication US20100144712A1 (priority 2007, published 2010) one finds MIC80 data, which are given here for nine compounds.

≈ marks a conversion by molar mass, not a printed value. Where only a bound is given, the exact number is not on record here.

As for `C[C@@H](N1CCN(Cc2cccs2)CC1)[C@](O)(Cn1cncn1)c1ccc(F)cc1F` [Example 44, (2R,3R)-2-(2,4-difluorophenyl)-3-(4-((thiophen-2-yl)methyl)piperazin-1-yl)-1-(1H-1,2,4-triazol-1-yl)butan-2-ol], the MIC80 in [1] is 32 µg/mL (≈ 73.8 µM); in experiment [2] it was above 128 µg/mL; in [3], 0.125 µg/mL (≈ 0.288 µM); in experiment [4], 0.125 µg/mL (≈ 0.288 µM); in experiment [5] it was 0.125 µg/mL (≈ 0.288 µM); in experiment [6], 4 µg/mL (≈ 9.23 µM). Moreover, the MIC80 in [7] was determined as 64 µg/mL (≈ 148 µM); in experiment [8], 32 µg/mL (≈ 73.8 µM); in experiment [9], 4 µg/mL (≈ 9.23 µM); in experiment [10], 2 µg/mL (≈ 4.61 µM); in experiment [11] it was 0.5 µg/mL (≈ 1.15 µM); in experiment [12] it was 32 µg/mL (≈ 73.8 µM).
Turning to `CC(N1CCN(C(=O)c2nc(-c3ccc(Cl)cc3)no2)CC1)C(O)(Cn1cncn1)c1ccc(F)cc1F` [Example 48, (3-(4-chlorophenyl-1,2,4-oxadiazol-5-yl)(4-((2R,3R)-3-(2,4-difluorophenyl)-3-hydroxy-4-(1H-1,2,4-triazol-1-yl)butan-2-yl)piperazin-1-yl)methanone], the MIC80 in experiment [2] is above 128 µg/mL; in experiment [4], 0.126 µg/mL (≈ 0.232 µM); in [7], above 128 µg/mL; in experiment [10], 0.25 µg/mL (≈ 0.46 µM); in [11] it was 0.126 µg/mL (≈ 0.232 µM).
On to `C[C@@H](N1CCN(Cc2ccccn2)CC1)[C@](O)(Cn1cncn1)c1ccc(F)cc1F` [Example 41, (2R,3R)-2-(2,4-difluorophenyl)-3-(4-((pyridin-2-yl)methyl)piperazin-1-yl)-1-(1H-1,2,4-triazol-1-yl)butan-2-ol], for which the MIC80 in [1] is 64 µg/mL (≈ 149 µM); in experiment [2] it was above 128 µg/mL; in experiment [3] it was 0.125 µg/mL (≈ 0.292 µM); in [4], 0.125 µg/mL (≈ 0.292 µM); in experiment [5], 0.125 µg/mL (≈ 0.292 µM); in [6], 16 µg/mL (≈ 37.3 µM). Besides, the MIC80 in experiment [7] is 32 µg/mL (≈ 74.7 µM); in [8] it was 64 µg/mL (≈ 149 µM); in experiment [10], 2 µg/mL (≈ 4.67 µM); in experiment [11], 1 µg/mL (≈ 2.33 µM); in [12] it was 64 µg/mL (≈ 149 µM).
Regarding `C[C@@H](N1CCN(C(=O)c2nc(-c3ccc(Cl)cc3)ns2)CC1)[C@](O)(Cn1cncn1)c1ccc(F)cc1F` [Example 51, (3-(4-chlorophenyl)-1,2,4-thiadiazol-5-yl)(4-((2R,3R)-3-(2,4-difluorophenyl)-3-hydroxy-4-(1H-1,2,4-triazol-1-yl)butan-2-yl)piperazin-1-yl)methanone], the MIC80 in [2] was above 128 µg/mL; in experiment [4], 0.25 µg/mL (≈ 0.446 µM); in experiment [7] it was above 128 µg/mL; in experiment [10], 4 µg/mL (≈ 7.14 µM); in [11], 1 µg/mL (≈ 1.79 µM).
`C[C@@H](N1CCN(C(=O)c2nc(-c3ccccc3)ns2)CC1)[C@](O)(Cn1cncn1)c1ccc(F)cc1F` [Example 50, (4-((2R,3R)-3-(2,4-difluorophenyl)-3-hydroxy-4-(1H-1,2,4-triazol-1-yl)butan-2-yl)piperazin-1-yl)(3-phenyl-1,2,4-thiadiazol-5-yl)methanone]: the MIC80 in experiment [2] was above 128 µg/mL; in experiment [4], 0.125 µg/mL (≈ 0.238 µM); in experiment [7], above 128 µg/mL; in experiment [10] it was above 128 µg/mL; in experiment [11], 0.5 µg/mL (≈ 0.951 µM).
`Cc1ccc(-c2noc(C(=O)N3CCN([C@H](C)[C@](O)(Cn4cncn4)c4ccc(F)cc4F)CC3)n2)cc1` [Example 47, (4-((2R,3R)-3-(2,4-difluorophenyl)-3-hydroxy-4-(1H-1,2,4-triazol-1-yl)butan-2-yl)piperazin-1-yl)(3-p-tolyl-1,2,4-oxadiazol-5-yl)methanone]: the MIC80 in experiment [2] is above 128 µg/mL; in [4], 0.125 µg/mL (≈ 0.239 µM); in [7], above 128 µg/mL; in experiment [10], 0.25 µg/mL (≈ 0.478 µM); in experiment [11], 0.25 µg/mL (≈ 0.478 µM).
With `C[C@@H](N1CCN(C(=O)c2nc(-c3ccccc3)no2)CC1)[C@](O)(Cn1cncn1)c1ccc(F)cc1F` [Example 45, (4-((2R,3R)-3-(2,4-difluorophenyl)-3-hydroxy-4-(1H-1,2,4-triazol-1-yl)butan-2-yl)piperazin-1-yl)(3-phenyl-1,2,4-oxadiazol-5-yl)methanone], the MIC80 in experiment [2] was above 128 µg/mL; in experiment [4], 0.125 µg/mL (≈ 0.245 µM); in [7] it was above 128 µg/mL; in experiment [10] it was 1 µg/mL (≈ 1.96 µM); in experiment [11] it was 0.125 µg/mL (≈ 0.245 µM).
As for `COc1ccc(-c2nsc(C(=O)N3CCN([C@H](C)[C@](O)(Cn4cncn4)c4ccc(F)cc4F)CC3)n2)cc1` [Example 54, (4-((2R,3R)-3-(2,4-difluorophenyl)-3-hydroxy-4-(1H-1,2,4-triazol-1-yl)butan-2-yl)piperazin-1-yl)(3-(4-methoxyphenyl)-1,2,4-thiadiazol-5-yl)methanone], the MIC80 in experiment [2] was above 128 µg/mL; in experiment [4], 0.125 µg/mL (≈ 0.225 µM); in [7], above 128 µg/mL; in experiment [10], 4 µg/mL (≈ 7.2 µM); in experiment [11] it was 0.5 µg/mL (≈ 0.9 µM).
For the compound `Cc1ccc(-c2nsc(C(=O)N3CCN([C@H](C)[C@](O)(Cn4cncn4)c4ccc(F)cc4F)CC3)n2)cc1` [Example 53, (4-((2R,3R)-3-(2,4-difluorophenyl)-3-hydroxy-4-(1H-1,2,4-triazol-1-yl)butan-2-yl)piperazin-1-yl)(3-p-tolyl-1,2,4-thiadiazol-5-yl)methanone], the MIC80 in experiment [2] is above 128 µg/mL; in experiment [4] it was 0.25 µg/mL (≈ 0.463 µM); in [7], above 128 µg/mL; in experiment [10], above 128 µg/mL; in [11], 1 µg/mL (≈ 1.85 µM).
